From US20100022491A1, “4-HYDROXY-2-OXO-2,3-DIHYDRO-1,3-BENZOTHIAZOL-7YL COMPOUNDS FOR MODULATION OF B2-ADRENORECEPTOR ACTIVITY” (ASTRAZENECA AB, priority 2006, published 2010)
Structures can show the parent of a compound that is named as a salt.

Legend:
Adrenergic β2 = molecular target: T1, Adrenergic β2 (Homo sapiens, UniProt P07550); experiment: Adrenergic β2 mediated cAMP production in H292 cells; assay type: cell-based; conditions: for EC50: H292 cells, cAMP by AlphaScreen, 60 minutes at room temperature, rolipram 300 μM, read-out: β2 pEC50 (converted); for β2 Int Act: Intrinsic Activity as a fraction relative to the maximum activity determined for formoterol
T1 construct: Adherent H292 cells were removed from tissue culture flasks; endogenous in cells; host or cells: H292 cells
T1 sequence (P07550 whole entry): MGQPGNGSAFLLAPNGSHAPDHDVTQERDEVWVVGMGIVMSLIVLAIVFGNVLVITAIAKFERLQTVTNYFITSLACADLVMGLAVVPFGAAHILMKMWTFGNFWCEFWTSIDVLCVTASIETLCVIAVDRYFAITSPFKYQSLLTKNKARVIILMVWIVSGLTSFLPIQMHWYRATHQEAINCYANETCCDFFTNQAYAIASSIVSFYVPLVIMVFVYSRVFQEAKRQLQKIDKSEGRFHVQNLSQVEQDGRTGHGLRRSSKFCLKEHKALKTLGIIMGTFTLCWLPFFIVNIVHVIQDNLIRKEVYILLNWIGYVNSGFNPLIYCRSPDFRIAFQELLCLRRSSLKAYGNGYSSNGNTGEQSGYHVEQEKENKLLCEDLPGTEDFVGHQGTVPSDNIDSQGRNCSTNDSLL
Procedure: Adrenergic β2 mediated cAMP production
H292 cells were grown in 225 cm2 flasks incubator at 37° C., 5% CO2 in RPMI medium containing, 10% (v/v) FBS (foetal bovine serum) and 2 mM L-glutamine.
Adherent H292 cells were removed from tissue culture flasks by treatment with Accutase™ cell detachment solution for 15 minutes. Flasks were incubated for 15 minutes in a humidified incubator at 37° C., 5% CO2. Detached cells were re-suspended in RPMI media (containing 10% (v/v) FBS and 2 mM L-glutamine) at 0.05×10^6 cells per mL. 5000 cells in 100 μL were added to each well of a tissue-culture-treated 96-well plate and the cells incubated overnight in a humidified incubator at 37° C., 5% CO2. The culture media was removed and cells were washed twice with 100 μL assay buffer and replaced with 50 μL assay buffer (HBSS solution containing 10 mM HEPES pH7.4 and 5 mM glucose). Cells were rested at room temperature for 20 minutes after which time 25 μL of rolipram (1.2 mM made up in assay buffer containing 2.4% (v/v) dimethylsulphoxide) was added. Cells were incubated with rolipram for 10 minutes after which time test compounds were added and the cells were incubated for 60 minutes at room temperature. The final rolipram concentration in the assay was 300 μM and final vehicle concentration was 1.6% (v/v) dimethylsulphoxide. The reaction was stopped by removing supernatants, washing once with 100 μL assay buffer and replacing with 50 μL lysis buffer. The cell monolayer was frozen at −80° C. for 30 minutes (or overnight).
The concentration of cAMP (cyclic adenosine monophosphate) in the cell lysate was determined using AlphaScreen™ methodology. The frozen cell plate was thawed for 20 minutes on a plate shaker then 10 μL of the cell lysate was transferred to a 96-well white plate. 40 μL of mixed AlphaScreen™ detection beads pre-incubated with biotinylated cAMP, was added to each well and the plate incubated at room temperature for 10 hours in the dark. The AlphaScreen™ signal was measured using an EnVision spectrophotometer (Perkin-Elmer Inc.) with the recommended manufacturer's settings. cAMP concentrations were determined by reference to a calibration curve determined in the same experiment using standard cAMP concentrations. Concentration response curves for agonists were constructed and data was fitted to a four parameter logistic equation to determine both the pEC50 and Intrinsic Activity. Intrinsic Activity was expressed as a fraction relative to the maximum activity determined for formoterol in each experiment.

[1] = molecular target: T2, recombinant human α1D receptor (Homo sapiens, UniProt P25100); experiment: Adrenergic α1D selectivity binding assay ([3H]-prazosin); conditions: inhibition of [3H]-prazosin (0.3 nM) binding, HEK293 membranes; read-out: α1 bind pIC50 (converted)
T2 construct: expressed in transfected cells; host or cells: HEK293
T2 sequence (P25100 1-572): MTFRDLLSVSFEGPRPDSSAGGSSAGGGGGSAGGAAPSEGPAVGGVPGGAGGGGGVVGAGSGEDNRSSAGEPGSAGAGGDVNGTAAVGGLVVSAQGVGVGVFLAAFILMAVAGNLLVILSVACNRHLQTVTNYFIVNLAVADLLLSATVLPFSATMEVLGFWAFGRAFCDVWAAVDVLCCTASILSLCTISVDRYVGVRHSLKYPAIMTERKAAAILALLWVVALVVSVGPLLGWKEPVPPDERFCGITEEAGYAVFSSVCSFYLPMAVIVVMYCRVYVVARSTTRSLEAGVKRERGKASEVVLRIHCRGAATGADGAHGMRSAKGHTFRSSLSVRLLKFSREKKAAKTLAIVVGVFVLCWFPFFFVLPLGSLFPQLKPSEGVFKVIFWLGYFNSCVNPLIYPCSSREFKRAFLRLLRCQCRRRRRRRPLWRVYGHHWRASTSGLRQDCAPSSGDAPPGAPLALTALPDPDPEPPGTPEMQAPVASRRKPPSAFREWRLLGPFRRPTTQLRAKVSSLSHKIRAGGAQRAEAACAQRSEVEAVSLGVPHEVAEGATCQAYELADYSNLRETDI
Procedure: Membranes were prepared from human embryonic kidney 293 (HEK293) cells expressing recombinant human α1D receptor. These were diluted in Assay Buffer (50 mM HEPES, 1 mM EDTA, 0.1% gelatin, pH 7.4) to provide a final concentration of membranes that gave a clear window between maximum and minimum specific binding.
Assays were performed in U-bottomed 96-well polypropylene plates. 10 μL [^3H]-prazosin (0.3 nM final concentration) and 10 μL of test compound (10× final concentration) were added to each test well. For each assay plate 8 replicates were obtained for [^3H]-prazosin binding in the presence of 10 μL vehicle (10% (v/v) DMSO in Assay Buffer; defining maximum binding) or 10 μL BMY7378 (10 μM final concentration; defining non-specific binding (NSB)). Membranes were then added to achieve a final volume of 100 μL. The plates were incubated for 2 hours at room temperature and then filtered onto PEI coated GF/B filter plates, pre-soaked for 1 hour in Assay Buffer, using a 96-well plate Tomtec cell harvester. Five washes with 250 μL wash buffer (50 mM HEPES, 1 mM EDTA, pH 7.4) were performed at 4° C. to remove unbound radioactivity. The plates were dried then sealed from underneath using Packard plate sealers and MicroScint-O (50 μL) was added to each well. The plates were sealed (TopSeal A) and filter-bound radioactivity was measured with a scintillation counter (TopCount, Packard BioScience) using a 3-minute counting protocol.
(§1) Total specific binding (B0) was determined by subtracting the mean NSB from the mean maximum binding. NSB values were also subtracted from values from all other wells. […] Data was fitted to a four parameter logistic equation to determine the compound potency, which was expressed as pIC50 (negative log molar concentration inducing 50% inhibition of [^3H]-prazosin binding).

[2] = molecular target: T3, recombinant human Dopamine Subtype D2s receptors (Homo sapiens, UniProt P14416); experiment: Dopamine D2 selectivity binding assay ([3H]-spiperone); conditions: inhibition of [3H]-spiperone (0.16 nM) binding; read-out: D2 bind pIC50 (converted)
T3 construct: purchased Perkin Elmer
T3 sequence (P14416 1-414 isoform P14416-2): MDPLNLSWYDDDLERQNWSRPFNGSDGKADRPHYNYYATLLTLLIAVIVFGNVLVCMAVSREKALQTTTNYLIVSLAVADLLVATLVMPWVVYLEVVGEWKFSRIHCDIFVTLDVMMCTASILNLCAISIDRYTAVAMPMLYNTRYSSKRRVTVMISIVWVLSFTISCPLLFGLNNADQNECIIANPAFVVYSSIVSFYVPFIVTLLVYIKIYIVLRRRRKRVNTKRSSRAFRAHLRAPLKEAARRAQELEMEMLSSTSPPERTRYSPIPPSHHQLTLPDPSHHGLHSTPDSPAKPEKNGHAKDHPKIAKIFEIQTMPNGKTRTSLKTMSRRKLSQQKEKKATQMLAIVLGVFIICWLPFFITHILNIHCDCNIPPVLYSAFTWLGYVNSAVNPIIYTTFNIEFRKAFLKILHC
Procedure: Membranes containing recombinant human Dopamine Subtype D2s receptors were obtained from Perkin Elmer. These were diluted in Assay Buffer (50 mM HEPES, 1 mM EDTA, 120 mM NaCl, 0.1% gelatin, pH 7.4) to provide a final concentration of membranes that gave a clear window between maximum and minimum specific binding.
Assays were performed in U-bottomed 96-well polypropylene plates. 30 μL [^3H]-spiperone (0.16 nM final concentration) and 30 μL of test compound (10× final concentration) were added to each test well. For each assay plate 8 replicates were obtained for [^3H]-spiperone binding in the presence of 30 μL vehicle (10% (v/v) DMSO in Assay Buffer; defining maximum binding) or 30 μL Haloperidol (10 μM final concentration; defining non-specific binding (NSB)). Membranes were then added to achieve a final volume of 300 μL. The plates were incubated for 2 hours at room temperature and then filtered onto PEI coated GF/B filter plates, pre-soaked for 1 hour in Assay Buffer, using a 96-well plate Tomtec cell harvester. Five washes with 250 μL wash buffer (50 mM HEPES, 1 mM EDTA, 120 mM NaCl, pH 7.4) were performed at 4° C. to remove unbound radioactivity. The plates were dried then sealed from underneath using Packard plate sealers and MicroScint-O (50 μL) was added to each well. The plates were sealed (TopSeal A) and filter-bound radioactivity was measured with a scintillation counter (TopCount, Packard BioScience) using a 3-minute counting protocol.
as §1, with “[^3H]-spiperone” for “[^3H]-prazosin”

SMILES	EC50 (Adrenergic β2)	β2 Int Act (Adrenergic β2)	IC50 [1]	IC50 [2]
CC(C)(CO)CN(CCNCCc1ccc(O)c2[nH]c(=O)sc12)C(=O)CCNCCc1ccc(Cl)cc1 [Example 40, N^3-[2-(4-Chlorophenyl)ethyl]-N-(3-hydroxy-2,2-dimethylpropyl)-N-(2-{[2-(4-hydroxy-2-oxo-2,3-dihydro-1,3-benzothiazol-7-yl)ethyl]amino}ethyl)-β-alaninamide diacetic acid salt]	63.1 nM	0.64	794 nM	794 nM
CC(C)N(CCNCCc1ccc(O)c2[nH]c(=O)sc12)C(=O)CCNCCc1ccc(Cl)cc1 [Example 3, N^3-[2-(4-Chlorophenyl)ethyl]-N-(2-{[2-(4-hydroxy-2-oxo-2,3-dihydro-1,3-benzothiazol-7-yl)ethyl]amino}ethyl)-N-isopropyl-β-alaninamide bis-trifluoroacetic acid salt]	39.8 nM	0.34	251 nM	794 nM
COc1cccc(CCNCCC(=O)N(CCNCCc2ccc(O)c3[nH]c(=O)sc23)C2CCCCC2)c1 [Example 70, N^1-Cyclohexyl-N^1-(2-{[2-(4-hydroxy-2-oxo-2,3-dihydro-1,3-benzothiazol-7-yl)ethyl]amino}ethyl)-N^3-[2-(3-methoxyphenyl)ethyl]-β-alaninamide bis-trifluoroacetic acid salt]	5.01 nM	0.84	126 nM	200 nM
O=C(CCNCCc1ccccn1)N(CCNCCc1ccc(O)c2[nH]c(=O)sc12)C1CCCCC1 [Example 33, N-Cyclohexyl-N-(2-{[2-(4-hydroxy-2-oxo-2,3-dihydro-1,3-benzothiazol-7-yl)ethyl]amino}ethyl)-N^3-(2-pyridin-2-ylethyl)-β-alaninamide bis-trifluoroacetic acid salt]	15.8 nM	0.78	100 nM	631 nM
C[C@@H](CNCCC(=O)N(CCNCCc1ccc(O)c2[nH]c(=O)sc12)C1CCCCC1)c1ccccc1 [Example 20, N-Cyclohexyl-N-(2-{[2-(4-hydroxy-2-oxo-2,3-dihydro-1,3-benzothiazol-7-yl)ethyl]amino}ethyl)-N^3-[(2R)-2-phenylpropyl]-β-alaninamide bis-trifluoroacetic acid salt]	10 nM	0.97	251 nM	794 nM

Other lines, results leading:

EC50 (Adrenergic β2)	β2 Int Act (Adrenergic β2)	IC50 [1]	IC50 [2]	SMILES
3.98 nM	0.89	200 nM	794 nM	C[C@H](CNCCC(=O)N(CCNCCc1ccc(O)c2[nH]c(=O)sc12)C1CCCCC1)c1ccccc1 [Example 18, N-Cyclohexyl-N-(2-{[2-(4-hydroxy-2-oxo-2,3-dihydro-1,3-benzothiazol-7-yl)ethyl]amino}ethyl)-N^3-[(2S)-2-phenylpropyl]-β-alaninamide bis-trifluoroacetic acid salt]
39.8 nM	0.70	398 nM	1000 nM	CC(C)(Cc1ccccc1)NCCC(=O)N(CCNCCc1ccc(O)c2[nH]c(=O)sc12)C1CCCCC1 [Example 19, N-Cyclohexyl-N^3-(1,1-dimethyl-2-phenylethyl)-N-(2-{[2-(4-hydroxy-2-oxo-2,3-dihydro-1,3-benzothiazol-7-yl)ethyl]amino}ethyl)-β-alaninamide bis-trifluoroacetic acid salt]
5.01 nM	0.69	251 nM	794 nM	Cc1cccc(CCNCCC(=O)N(CCNCCc2ccc(O)c3[nH]c(=O)sc23)CC(C)(C)C)c1 [Example 10, N-(2,2-Dimethylpropyl)-N-(2-{[2-(4-hydroxy-2-oxo-2,3-dihydro-1,3-benzothiazol-7-yl)ethyl]amino}ethyl)-N^3-[2-(3-methylphenyl)ethyl]-β-alaninamide bis-trifluoroacetic acid salt]
31.6 nM	0.85	251 nM	3980 nM	CC(C)(CNCCC(=O)N(CCNCCc1ccc(O)c2[nH]c(=O)sc12)C1CCCCC1)c1ccccc1 [Example 21, N-Cyclohexyl-N-(2-{[2-(4-hydroxy-2-oxo-2,3-dihydro-1,3-benzothiazol-7-yl)ethyl]amino}ethyl)-N^3-(2-methyl-2-phenylpropyl)-β-alaninamide bis-trifluoroacetic acid salt]
126 nM	0.86	1260 nM	398 nM	O=C(CCNCCC(F)(F)F)N(CCNCCc1ccc(O)c2[nH]c(=O)sc12)C1CCCCC1 [Example 80, N^1-Cyclohexyl-N^1-(2-{[2-(4-hydroxy-2-oxo-2,3-dihydro-1,3-benzothiazol-7-yl)ethyl]amino}ethyl)-N^3-(3,3,3-trifluoropropyl)-β-alaninamide bis-trifluoroacetic acid salt]
